Entries after “also recorded” stand apart in the source; their conditions may differ. Read-outs that look alike come from different tables or passages of the source.
Tests used:
[1] = system: CD20+ B cells; test: human B cell activation following BCR stimulation by anti-IgM (CD69); assay type: cell-based; details: read-out: EC50 of inhibition of human B cell activation
Method: (§1) CD20+ B and CD3+ T cells were purified by negative selection (RosetteSep, >90% purity) from Buffy coat PBMC and viably frozen in 10% DMSO. Cells were thawed at 37° C. and maintained in growth media (RPMI media containing 10% FCS). B cells were stimulated with goat anti-human IgM F(ab′)2 (10 ug/ml, Invitrogen) and T cells were stimulated with anti-CD3/CD28 coated beads (Dynabeads) at a 1:1 bead/cell ratio. Cells were stained with PE-CD69 (BD) and analyzed by flow cytometry, gating on viable lymphocytes. […] For washout experiments, cells were rinsed 3× in 10 volumes of growth media, a protocol that was confirmed to completely wash away inhibition of BCR signaling by a reversible Btk inhibitor.

[2] = molecular target: JAK1 (Homo sapiens, UniProt P23458); test: kinase selectivity, JAK1; assay type: biochemical
[3] = molecular target: VEGFR2 (Homo sapiens, UniProt P35968); test: kinase selectivity, VEGFR2; assay type: biochemical
[4] = system: RAW264.7 cells; test: IgG mediated phagocytosis of Zymosan particles; assay type: cell-based, murine; details: IgG opsonized Zymosan particles, RAW cells
Method: Prelabeled Zymosan particles were first opsonized with mouse IgG at 37 C for 30 min, and then centrifuged down and washed several times with PBS. The Zymosan particles are the resuspended in PBS.

[5] = molecular target: T1, JAK3 (Homo sapiens, UniProt P52333); test: kinase selectivity, JAK3; assay type: biochemical
T1 sequence (P52333 1-1124): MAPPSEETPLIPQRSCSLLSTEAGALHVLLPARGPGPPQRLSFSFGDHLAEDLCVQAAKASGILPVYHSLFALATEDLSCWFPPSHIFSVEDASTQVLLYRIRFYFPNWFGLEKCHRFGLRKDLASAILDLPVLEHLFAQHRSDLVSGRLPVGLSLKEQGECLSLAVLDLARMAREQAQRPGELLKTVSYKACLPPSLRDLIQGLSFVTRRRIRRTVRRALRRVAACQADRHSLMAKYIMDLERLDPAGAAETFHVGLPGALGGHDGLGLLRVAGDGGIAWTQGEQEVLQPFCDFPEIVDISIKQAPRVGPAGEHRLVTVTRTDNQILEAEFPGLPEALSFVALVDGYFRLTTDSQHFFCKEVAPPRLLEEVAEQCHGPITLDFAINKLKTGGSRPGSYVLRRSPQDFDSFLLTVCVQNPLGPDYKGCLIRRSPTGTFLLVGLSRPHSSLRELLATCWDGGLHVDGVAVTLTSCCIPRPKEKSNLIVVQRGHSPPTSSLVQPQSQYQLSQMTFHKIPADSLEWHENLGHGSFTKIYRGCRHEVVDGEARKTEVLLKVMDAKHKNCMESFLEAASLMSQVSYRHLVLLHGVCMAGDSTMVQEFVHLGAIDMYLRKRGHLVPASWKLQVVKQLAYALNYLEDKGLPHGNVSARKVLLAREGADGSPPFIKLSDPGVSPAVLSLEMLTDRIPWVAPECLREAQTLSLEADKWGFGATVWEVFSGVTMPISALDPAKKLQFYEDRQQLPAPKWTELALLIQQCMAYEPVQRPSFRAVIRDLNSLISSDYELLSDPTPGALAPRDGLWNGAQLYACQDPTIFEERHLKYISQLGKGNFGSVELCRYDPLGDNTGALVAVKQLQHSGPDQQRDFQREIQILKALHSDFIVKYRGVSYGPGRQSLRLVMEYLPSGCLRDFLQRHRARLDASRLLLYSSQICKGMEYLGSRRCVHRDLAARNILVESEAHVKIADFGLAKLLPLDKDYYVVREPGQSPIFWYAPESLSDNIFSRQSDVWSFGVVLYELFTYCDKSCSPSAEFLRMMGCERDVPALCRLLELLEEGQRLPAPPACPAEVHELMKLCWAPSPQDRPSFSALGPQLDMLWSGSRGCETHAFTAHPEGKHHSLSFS

[6] = in vivo; details: CDIGS, rat
[7] = system: murine collagen-antibody-induced arthritis model (CAIA model); test: murine collagen-antibody-induced arthritis model (CAIA model); assay type: in vivo, DBA/1 mice; details: for dose that completely suppressed the development of arthritis: mouse, in vivo
Method: DBA/1 mice were injected intravenously with 2 mg of Arthrogen-CIA 5 mouse anti-bovine collagen (Chondrex) on day 0. Three days later, these mice were injected IP with 50 μg of LPS.
Mice were monitored for clinical symptoms daily with the criteria below.
0=normal 1=1 hind or fore paw joint affected 2=2 hind or fore paw joints affected 3=3 hind or fore paw joints affected 4=moderate (erythema and moderate swelling, or =4 digit joints affected) 5=severe (diffuse erythema and severe swelling entire paw, unable to flex digits)

[8] = interspecies scaling of clearance and estimation of efficacious human daily dosage; details: FIG. 7
Method: There is an excellent scaling of clearance (dose/AUC) within mice, rats and dogs, and therefore exposure to dose projection in humans is likely precise. Based on interspecies scaling of clearance, the human BW normalized CL/F was determined to be about 2.53 (FIG. 7).

[9] = molecular target: Btk (Homo sapiens, UniProt Q06187); test: Btk biochemical assays
[10] = system: human whole blood basophils; test: whole blood basophil assay, CD63 after anti-IgE stimulation; assay type: cell-based; details: for EC50: human whole blood basophils, read-out: EC50 of inhibition of anti-IgE mediated upregulation of CD63
Method: Fresh whole blood was collected on the day of the experiment from a healthy volunteer. Whole blood is stimulated with 10 ng/mL of rhIL-3 (Invitrogen) and […] of anti-IgE (Beckman Coulter) in Basophil Stimulation Buffer (20 mM HEPES pH 7.4, 125 mM NaCl, 5 mM KCl, 2.5 mM CaCl2, 1 mM MgCl2, 0.5% Glucose, 0.1% BSA) at 37° C. for 15 min. The reaction was terminated by the addition of EDTA. The stimulated whole blood was then stained with a fluorescent three-antibody cocktail (FITC-Anti-CD63/PerCP-Anti-HLA-DR/PE-Anti-CD123) (BD Biosciences) at room temperature in the dark for 15 min. Following staining, blood was treated with 1×FACS Lysing solution (BD Biosciences) for 15 minutes to lyse the RBC. The lysed RBC supernatant was removed following centrifugation for […]. The cell pellet was resuspended and fixed in 0.5% paraformaldehyde in PBS. The percentage of basophil degranulation was determined by the % of CD63 cells that were CD123 positive and HLA-DR negative.

[11] = system: CD20+ B cells; test: B cell viability; assay type: cell-based, human; details: concentrations below 10 μM
Method: as §1

[12] = system: human monocytes; test: human monocyte cytokine release assay (IgG stimulation); assay type: cell-based; details: for release of IL-1β from human monocytes following FcγR stimulation with IgG: FIG. 2
Method: Human monocytes were isolated from Ficoll-gradient purified PBMC from healthy human volunteers using negative selection with EasySep (StemCells) magnetic beads. CD14+monocytes were then stimulated with IFN-gamma for 6 days, and then 2×10^6 cells were plated onto 10 μg/ml of human IgG (R&D Biosystems) coated onto Immulon 4 ELISA plates. […] Supernatants were collected from the plates and cytokines levels were determined with ELISA kits.

[13] = molecular target: Abl (Homo sapiens, UniProt P00519); test: kinase selectivity, Abl; assay type: biochemical
[14] = system: CD3+ T cells; test: T cell viability; assay type: cell-based, human; details: concentrations below 10 μM
Method: as §1

[15] = in vitro; details: human, liver microsomes
[16] = hepatic extraction ratio in rats; assay type: in vivo; details: oral, 1-(AUC systemic÷AUC portal)
Method: The analyses were performed using nominal sample times and a noncompartmental method with uniform weighting. Pharmacokinetic parameter estimates included terminal half-life and area under the concentration-time curve (AUC). Extraction ratios were calculated as 1-(AUC systemic÷AUC portal).

[17] = system: murine collagen-induced arthritis (CIA) model; test: murine collagen-induced arthritis (CIA) model; assay type: in vivo, mice; details: for inflammatory synovitis, pannus formation, synovial fluid cytokines, cartilage damage and bone erosion: preventive and established murine CIA models
Method: Male mice 7 weeks of age were purchased from Harlan Laboratories, and acclimated for a minimum of 3 days. Mice were immunized on Day 0 with 150 μg of bovine collagen II (Chondrex Inc) in CFA (Sigma), and boosted with 100 μg of bovine collagen II in IFA on day 21. Fore and hind paws of mice were scored daily with a clinical scoring system using the following criteria:
0=normal 1=1 hind or fore paw joint affected • with minimal diffuse swelling and erythema (redness of the skin due to congestion of the capillaries)
2=2 hind or fore paw joints affected • with minimal diffuse swelling and erythema (redness of the skin due to congestion of the capillaries)
3=3 hind or fore paw joints affected • with minimal diffuse swelling and erythema (redness of the skin due to congestion of the capillaries)
4=minimum of 4 joints affected • marked diffuse swelling and erythema (redness of the skin due to congestion of the capillaries)
5=minimum entire paw, • unable to flex (Severe diffuse swelling and erythema redness of the skin due to congestion of the capillaries
Mice were enrolled randomly into treatment groups when a minimum mean paw score of 1.0 was established. The treatments started on the day of enrollment and continued for 12 days. Clinical scores were monitored daily for each animal in the treatment groups.

[18] = molecular target: EGFR (Homo sapiens, UniProt P00533); test: kinase selectivity, EGFR; assay type: biochemical
[19] = molecular target: JAK2 (Homo sapiens, UniProt O60674); test: kinase selectivity, JAK2; assay type: biochemical

Btk, sequence (Q06187 whole entry): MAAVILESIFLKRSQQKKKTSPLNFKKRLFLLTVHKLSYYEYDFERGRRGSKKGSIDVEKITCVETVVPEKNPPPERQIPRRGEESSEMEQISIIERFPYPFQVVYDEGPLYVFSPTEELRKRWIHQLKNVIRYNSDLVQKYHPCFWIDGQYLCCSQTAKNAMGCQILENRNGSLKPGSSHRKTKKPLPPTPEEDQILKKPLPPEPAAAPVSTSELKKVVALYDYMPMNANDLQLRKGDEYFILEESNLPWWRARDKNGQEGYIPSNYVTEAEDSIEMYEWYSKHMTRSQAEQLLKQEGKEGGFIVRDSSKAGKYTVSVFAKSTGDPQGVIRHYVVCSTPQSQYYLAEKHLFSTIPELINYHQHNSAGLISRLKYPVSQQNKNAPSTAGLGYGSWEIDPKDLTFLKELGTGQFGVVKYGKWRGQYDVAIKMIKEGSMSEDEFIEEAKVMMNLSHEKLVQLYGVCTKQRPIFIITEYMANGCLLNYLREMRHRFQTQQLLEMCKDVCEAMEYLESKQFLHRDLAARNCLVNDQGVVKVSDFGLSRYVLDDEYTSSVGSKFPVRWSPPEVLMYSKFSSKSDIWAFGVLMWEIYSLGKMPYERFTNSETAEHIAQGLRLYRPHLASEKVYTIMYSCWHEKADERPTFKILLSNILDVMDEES
JAK1, sequence (P23458 whole entry): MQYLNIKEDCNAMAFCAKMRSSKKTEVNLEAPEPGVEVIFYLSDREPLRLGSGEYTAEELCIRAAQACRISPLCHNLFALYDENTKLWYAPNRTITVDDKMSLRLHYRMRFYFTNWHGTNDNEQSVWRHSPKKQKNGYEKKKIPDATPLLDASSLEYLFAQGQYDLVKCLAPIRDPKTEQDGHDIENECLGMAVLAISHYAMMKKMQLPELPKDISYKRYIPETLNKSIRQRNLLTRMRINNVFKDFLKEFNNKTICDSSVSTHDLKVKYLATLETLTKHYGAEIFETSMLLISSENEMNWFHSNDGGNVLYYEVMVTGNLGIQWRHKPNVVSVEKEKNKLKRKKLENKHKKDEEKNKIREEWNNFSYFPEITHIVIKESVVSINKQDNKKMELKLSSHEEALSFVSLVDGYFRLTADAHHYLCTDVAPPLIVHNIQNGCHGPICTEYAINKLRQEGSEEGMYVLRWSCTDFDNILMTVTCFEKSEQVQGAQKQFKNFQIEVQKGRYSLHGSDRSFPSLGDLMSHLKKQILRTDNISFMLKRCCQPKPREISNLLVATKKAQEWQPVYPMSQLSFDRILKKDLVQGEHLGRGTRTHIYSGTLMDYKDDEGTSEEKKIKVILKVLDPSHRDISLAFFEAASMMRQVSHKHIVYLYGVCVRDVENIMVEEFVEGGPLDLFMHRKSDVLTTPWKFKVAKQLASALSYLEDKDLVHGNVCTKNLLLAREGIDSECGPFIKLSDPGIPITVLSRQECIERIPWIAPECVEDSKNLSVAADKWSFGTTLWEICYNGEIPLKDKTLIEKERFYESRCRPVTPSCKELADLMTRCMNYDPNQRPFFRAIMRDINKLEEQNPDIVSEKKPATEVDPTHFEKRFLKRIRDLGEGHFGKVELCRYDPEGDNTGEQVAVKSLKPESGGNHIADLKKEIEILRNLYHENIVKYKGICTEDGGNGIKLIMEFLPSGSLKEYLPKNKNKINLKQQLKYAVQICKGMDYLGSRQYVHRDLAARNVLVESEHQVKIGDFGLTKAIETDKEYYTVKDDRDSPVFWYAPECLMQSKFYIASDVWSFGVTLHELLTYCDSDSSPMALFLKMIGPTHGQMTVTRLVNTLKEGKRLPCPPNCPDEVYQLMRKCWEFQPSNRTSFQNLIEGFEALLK
VEGFR2, sequence (P35968 20-1356, species assumed): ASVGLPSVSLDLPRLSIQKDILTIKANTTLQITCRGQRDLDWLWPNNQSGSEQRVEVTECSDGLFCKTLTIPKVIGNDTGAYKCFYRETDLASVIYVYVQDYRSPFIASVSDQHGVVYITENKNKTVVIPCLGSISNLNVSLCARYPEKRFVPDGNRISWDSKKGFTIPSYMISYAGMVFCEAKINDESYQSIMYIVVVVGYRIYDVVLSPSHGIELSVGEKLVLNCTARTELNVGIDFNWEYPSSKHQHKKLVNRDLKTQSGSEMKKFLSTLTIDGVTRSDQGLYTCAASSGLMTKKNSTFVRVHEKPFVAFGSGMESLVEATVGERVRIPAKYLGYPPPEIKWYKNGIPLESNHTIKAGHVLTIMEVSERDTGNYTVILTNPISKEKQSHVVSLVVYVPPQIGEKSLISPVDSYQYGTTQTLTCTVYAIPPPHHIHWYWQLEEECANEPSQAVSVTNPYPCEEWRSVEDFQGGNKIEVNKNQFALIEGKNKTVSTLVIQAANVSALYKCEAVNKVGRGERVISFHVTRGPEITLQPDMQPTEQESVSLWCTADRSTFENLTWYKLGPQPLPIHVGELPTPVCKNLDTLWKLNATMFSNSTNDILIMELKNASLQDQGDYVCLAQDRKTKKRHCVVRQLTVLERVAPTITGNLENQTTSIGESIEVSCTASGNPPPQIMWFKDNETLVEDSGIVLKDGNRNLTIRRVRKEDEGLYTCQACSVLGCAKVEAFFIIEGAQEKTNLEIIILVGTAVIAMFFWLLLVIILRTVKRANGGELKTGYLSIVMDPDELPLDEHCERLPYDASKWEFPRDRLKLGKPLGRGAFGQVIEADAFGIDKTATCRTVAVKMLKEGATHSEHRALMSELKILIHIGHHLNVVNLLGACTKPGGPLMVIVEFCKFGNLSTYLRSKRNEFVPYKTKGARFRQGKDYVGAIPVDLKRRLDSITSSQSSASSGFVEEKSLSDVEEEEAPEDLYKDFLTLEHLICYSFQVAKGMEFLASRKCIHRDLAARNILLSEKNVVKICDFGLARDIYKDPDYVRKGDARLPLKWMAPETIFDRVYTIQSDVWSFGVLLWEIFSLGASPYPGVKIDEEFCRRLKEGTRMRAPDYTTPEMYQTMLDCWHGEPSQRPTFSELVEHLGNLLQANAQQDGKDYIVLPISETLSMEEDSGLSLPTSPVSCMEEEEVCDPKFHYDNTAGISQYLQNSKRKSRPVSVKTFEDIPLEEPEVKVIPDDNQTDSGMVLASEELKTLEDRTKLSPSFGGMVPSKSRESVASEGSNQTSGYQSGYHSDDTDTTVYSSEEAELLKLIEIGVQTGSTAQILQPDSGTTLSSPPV
Abl, sequence (P00519 whole entry, species assumed): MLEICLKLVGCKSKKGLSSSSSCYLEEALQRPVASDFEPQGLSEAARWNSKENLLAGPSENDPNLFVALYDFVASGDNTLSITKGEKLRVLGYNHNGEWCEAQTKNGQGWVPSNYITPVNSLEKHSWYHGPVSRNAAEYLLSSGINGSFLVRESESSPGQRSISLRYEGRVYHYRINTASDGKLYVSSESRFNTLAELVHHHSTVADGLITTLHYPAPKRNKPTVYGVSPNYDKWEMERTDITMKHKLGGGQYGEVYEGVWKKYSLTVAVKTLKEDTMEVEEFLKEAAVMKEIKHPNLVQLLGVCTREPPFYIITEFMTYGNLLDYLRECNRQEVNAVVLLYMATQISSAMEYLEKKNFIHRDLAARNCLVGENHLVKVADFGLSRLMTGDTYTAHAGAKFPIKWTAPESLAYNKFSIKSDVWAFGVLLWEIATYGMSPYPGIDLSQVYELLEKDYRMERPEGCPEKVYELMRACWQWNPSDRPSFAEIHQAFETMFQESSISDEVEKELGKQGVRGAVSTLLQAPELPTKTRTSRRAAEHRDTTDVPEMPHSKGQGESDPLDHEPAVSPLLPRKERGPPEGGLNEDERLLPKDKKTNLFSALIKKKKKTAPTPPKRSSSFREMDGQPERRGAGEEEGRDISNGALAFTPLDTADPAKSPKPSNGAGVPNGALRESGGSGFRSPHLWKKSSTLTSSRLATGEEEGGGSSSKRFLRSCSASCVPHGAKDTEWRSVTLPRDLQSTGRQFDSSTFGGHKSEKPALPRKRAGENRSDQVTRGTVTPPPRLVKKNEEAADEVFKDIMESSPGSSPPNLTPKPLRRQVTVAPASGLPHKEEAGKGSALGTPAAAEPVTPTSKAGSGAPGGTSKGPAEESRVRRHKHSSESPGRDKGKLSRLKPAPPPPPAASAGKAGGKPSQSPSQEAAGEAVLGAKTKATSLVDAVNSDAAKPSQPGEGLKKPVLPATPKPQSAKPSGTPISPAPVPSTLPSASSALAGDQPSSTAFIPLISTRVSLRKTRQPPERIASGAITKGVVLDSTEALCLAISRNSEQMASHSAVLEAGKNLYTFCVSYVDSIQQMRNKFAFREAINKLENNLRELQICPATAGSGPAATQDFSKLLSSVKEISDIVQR

CN(C)C/C=C/C(=O)N1CC[C@@H](n2nc(-c3ccc(Oc4ccccc4)cc3)c3c(N)ncnc32)C1 [Compound 1]
EC50 [1]: 2 nM | inhibition of JAK1 [2]: no significant inhibition | inhibition of VEGFR2 [3]: no significant inhibition | concentration up to which IgG-mediated phagocytosis was not inhibited [4]: > 10,000 nM | inhibition of JAK3 [5]: no significant inhibition | bioavailability ([6]; in vivo): 24.7% | clinical arthritis ([7]; 0.8, 1.6 and 3.2 mg/kg/day, day 0 to day 14): completely prevented and suppressed clinical arthritis | dose that completely suppressed the development of arthritis [7]: 0.8 mg/kg/day | allometric scaling of CL/F vs. Body Weight in multiple species [8]: linear | IC50 [9]: 1 to 2 nM | selectivity as inhibitor of Btk ([9]; compared with Compound 2 or dasatinib): more selective inhibitor of Btk | basophil activation following anti-IgE stimulation ([10]; FIG. 1): basophil activation inhibition | EC50 ([10]; listed as (E)-1-4R)-3-(4-amino-3-(4-phenoxyphenyl)-1H-pyrazolo[3,4-d]pyrimidin-1-yl)pyrrol): ~92 nM | B cell viability [11]: did not decrease | concentration inhibiting cytokine release from human monocytes [12]: 20 to 100 nM | release of IL-1β from human monocytes following FcγR stimulation with IgG ([12]; listed as (E)-1-(R)-3-(4-amino-3-(4-phenoxyphenyl)-1H-pyrazolo[3,4-d]pyrimidin-1-yl)pyrro): suppressed the release of IL-1b; also recorded: monocyte release inhibition of IL-1β | inhibition of Abl [13]: no significant inhibition | T cell viability [14]: did not decrease | half-life [15]: 19.2 min | hepatic extraction ratio [16]: 0.289 | time after drug administration at which reversal of clinical arthritis was observed ([17]; 1.6 and 3.2 mg/kg/day): 1 days | clinical arthritic symptoms ([17]; 1.6 and 3.2 mg/kg/day, treatment for 12 days): reversed clinical arthritic symptoms | arthritic clinical scores ([17]; FIG. 4): reversal of arthritic clinical scores | EC50 of inhibition of overt manifestations of arthritis (clinical arthritic symptoms) ([17]; mice, CIA): 0.61 mg/kg/day | inflammatory synovitis, pannus formation, synovial fluid cytokines, cartilage damage and bone erosion [17]: dose-dependently inhibited | inhibition of EGFR [18]: no significant inhibition | inhibition of JAK2 [19]: no significant inhibition

C=CC(=O)N1CCC[C@@H](n2nc(-c3ccc(Oc4ccccc4)cc3)c3c(N)ncnc32)C1 [Compound 2, reference compound]
EC50 [1]: 2 nM | bioavailability ([6]; plasma, oral): 22.8% | dose that completely suppressed the development of arthritis [7]: 6.25 mg/kg/day | EC50 [10]: 20 to 100 nM | B cell viability [11]: did not decrease | release of IL-1β from human monocytes following FcγR stimulation with IgG ([12]; listed as (R)-1-(3-(4-amino-3-(4-phenoxyphenyl)-1H-pyrazolo[3,4-d]pyrimidin-1-yl)piperidin)): suppressed the release of IL-1b; also recorded: monocyte release inhibition of IL-1β | T cell viability [14]: did not decrease | inflammatory synovitis, pannus formation, synovial fluid cytokines, cartilage damage and bone erosion [17]: dose-dependently inhibited

C[C@@H]1C[C@H]2[C@@H]3CCC4=CC(=O)C=C[C@]4(C)[C@@]3(F)[C@@H](O)C[C@]2(C)[C@@]1(O)C(=O)CO [dexamethasone, reference compound]
average clinical scores ([7]; 0.2 mg/kg, day 14): 1

CN(Cc1cnc2nc(N)nc(N)c2n1)c1ccc(C(=O)N[C@@H](CCC(=O)O)C(=O)O)cc1 [methotrexate, reference compound]
clinical arthritis, disease course ([17]; 1.5 mg/kg/day): stabilized disease without further progression of arthritic swelling
